From patent publication US20190055576A1, “USE OF HERBICIDE-TOLERANT PROTEIN” (BEIJING DABEINONG TECHNOLOGY GROUP CO., LTD., priority 2016, published 2019)

Key:
[1] = test system: wild-type maize plants (CK2); test: Sulfometuron-methyl tolerance of wild-type maize plants, damage degree; assay type: in vivo; details: 120 g ai/ha
Description: (§1) The herbicide tolerance effects of Zm cytoplasmic ALT-1-02 maize plants, Zm chloroplastic ALT-1-02 maize plants, Zm cytoplasmic ALT-2-02 maize plants, Zm chloroplastic ALT-2-02 maize plants, Zm cytoplasmic ALT-3-02 maize plants, Zm chloroplastic ALT-3-02 maize plants and wild-type maize plants on Sulfometuron-methyl were detected (at V3-V4 stage), respectively.
Zm cytoplasmic ALT-1-02 maize plants, Zm chloroplastic ALT-1-02 maize plants, Zm cytoplasmic ALT-2-02 maize plants, Zm chloroplastic ALT-2-02 maize plants, Zm cytoplasmic ALT-3-02 maize plants, Zm chloroplastic ALT-3-02 maize plants and wild-type maize plants were respectively taken and sprayed with Sulfometuron-methyl (120 g ai/ha, 4-fold field concentration) and a blank solvent (water). The damage degree caused by the herbicide was measured for each plant according to the plant growth status 3 days after spraying (3 DAT), 7 days after spraying (7 DAT), 14 days after spraying (14 DAT) and 21 days after spraying (21 DAT), respectively: considering a growth status equivalent to that of the untreated plants as having a damage degree of 0%; considering conditions of leaves being partially chlorotic and yellow but substantially not affecting the plant normal growth as having a damage degree of 50%; and considering the whole plant being purple and dying as having a damage degree of 100%. There were 2 strains in Zm cytoplasmic ALT-1-02 maize plants in total (S13 and S14), 2 strains in Zm chloroplastic ALT-1-02 maize plants in total (S15 and S16), 2 strains in Zm cytoplasmic ALT-2-02 maize plants in total (S17 and S18), 2 strains in Zm chloroplastic ALT-2-02 maize plants in total (S19 and S20), 2 strains in Zm cytoplasmic ALT-3-02 maize plants in total (S21 and S22), 2 strains in Zm chloroplastic ALT-3-02 maize plants in total (S23 and S24), and 1 strain in wild-type maize plants (CK2) in total; and 10-15 plants were selected from each strain and tested.

[2] = test system: transgenic soybean plants (Gm cytoplasmic/chloroplastic ALT-1-01, ALT-2-01, ALT-3-01); test: Sulfometuron-methyl tolerance of transgenic soybean plants, damage degree by leaf curl and growth point damage; assay type: in vivo; details: 120 g ai/ha; for Average damage % 3DAT / Average damage % 7DAT / Average damage % 14DAT / Average damage % 21DAT: 4-fold field concentration; for Average damage % 3DAT: 3 days after spraying; for Average damage % 7DAT: 7 days after spraying; for Average damage % 14DAT: 14 days after spraying; for Average damage % 21DAT: 21 days after spraying
Description: as §1, with “Gm” for “Zm”, “ALT-1-01 soybean” for “ALT-1-02 maize”, “ALT-2-01 soybean” for “ALT-2-02 maize”, “ALT-3-01 soybean” for “ALT-3-02 maize”, “soybean” for “maize”, “seedling” for “V3-V4”
Gm cytoplasmic ALT-1-01 soybean plants, Gm chloroplastic ALT-1-01 soybean plants, Gm cytoplasmic ALT-2-01 soybean plants, Gm chloroplastic ALT-2-01 soybean plants, Gm cytoplasmic ALT-3-01 soybean plants, Gm chloroplastic ALT-3-01 soybean plants and wild-type soybean plants were respectively taken and sprayed with Sulfometuron-methyl (120 g ai/ha, 4-fold field concentration) and a blank solvent (water). The damage degree caused by the herbicide was measured for each plant according to the leaf curl degree and the growth point damage degree 3 days after spraying (3 DAT), 7 days after spraying (7 DAT), 14 days after spraying (14 DAT) and 21 days after spraying (21 DAT), respectively: considering conditions of leaves being flat as the untreated plants and growth points being intact as having a damage degree of 0%; considering conditions of veins being locally browned, new leaves being malformed and plant growth being slow as having a damage degree of 50%; and considering conditions of veins being purple to whole plant being dead and growth points being browned and dry as having a damage degree of 100%. There were 2 strains in Gm cytoplasmic ALT-1-01 soybean plants in total (S1 and S2), 2 strains in Gm chloroplastic ALT-1-01 soybean plants in total (S3 and S4), 2 strains in Gm cytoplasmic ALT-2-01 soybean plants in total (S5 and S6), 2 strains in Gm chloroplastic ALT-2-01 soybean plants in total (S7 and S8), 2 strains in Gm cytoplasmic ALT-3-01 soybean plants in total (S9 and S10), 2 strains in Gm chloroplastic ALT-3-01 soybean plants in total (S11 and S12), and 1 strain in wild-type soybean plants (CK1) in total; and 10-15 plants were selected from each strain and tested.

[3] = strain S1 (Gm cytoplasmic ALT-1-01 soybean)
[4] = strain S2 (Gm cytoplasmic ALT-1-01 soybean)
[5] = strain S3 (Gm chloroplastic ALT-1-01 soybean)
[6] = strain S4 (Gm chloroplastic ALT-1-01 soybean)
[7] = strain S5 (Gm cytoplasmic ALT-2-01 soybean)
[8] = strain S6 (Gm cytoplasmic ALT-2-01 soybean)
[9] = strain S7 (Gm chloroplastic ALT-2-01 soybean)
[10] = strain S8 (Gm chloroplastic ALT-2-01 soybean)
[11] = strain S9 (Gm cytoplasmic ALT-3-01 soybean)
[12] = strain S10 (Gm cytoplasmic ALT-3-01 soybean)
[13] = strain S11 (Gm chloroplastic ALT-3-01 soybean)
[14] = strain S12 (Gm chloroplastic ALT-3-01 soybean)

Q: How did the “Average damage % 3DAT” value ([1]; CK2 (wild-type maize), 4-fold field concentration, 3 days after spraying) turn out when `COC(=O)c1ccccc1S(=O)(=O)NC(=O)Nc1nc(C)cc(C)n1` [Sulfometuron-methyl, 2-(4,6-dimethylpyrimidine-2-amino-formamido-sulfonyl) methyl benzoate] was run?
A: 44%

Q: What about the “Average damage % 7DAT” value ([1]; CK2 (wild-type maize), 4-fold field concentration, 7 days after spraying) of the same molecule?
A: 87%

Q: What about the “Average damage % 14DAT” value ([1]; CK2 (wild-type maize), 4-fold field concentration, 14 days after spraying) of the same molecule?
A: 100%

Q: What about the “Average damage % 21DAT” value ([1]; CK2 (wild-type maize), 4-fold field concentration, 21 days after spraying) of the same molecule?
A: 100%

Q: What about the “herbicide tolerance of wild-type plants” value ([1]; wild-type maize plants) of the same molecule?
A: not tolerant

Q: And the “Average damage % 3DAT” value [2, 3]?
A: 6%

Q: And the “Average damage % 7DAT” value [2, 3]?
A: 0%

Q: What about the “Average damage % 14DAT” value [2, 3] of the same molecule?
A: 0%

Q: And the “Average damage % 21DAT” value [2, 3]?
A: 0%

Q: And the “Average damage % 3DAT” value [2, 4]?
A: 7%

Q: What about the “Average damage % 7DAT” value [2, 4] of the same molecule?
A: 0%

Q: And the “Average damage % 14DAT” value [2, 4]?
A: 0%

Q: And the “Average damage % 21DAT” value [2, 4]?
A: 0%

Q: What about the “Average damage % 3DAT” value [2, 5] of the same molecule?
A: 0%

Q: And the “Average damage % 7DAT” value [2, 5]?
A: 0%

Q: And the “Average damage % 14DAT” value [2, 5]?
A: 0%

Q: What about the “Average damage % 21DAT” value [2, 5] of the same molecule?
A: 0%

Q: And the “Average damage % 3DAT” value [2, 6]?
A: 0%

Q: And the “Average damage % 7DAT” value [2, 6]?
A: 0%

Q: And the “Average damage % 14DAT” value [2, 6]?
A: 0%

Q: What about the “Average damage % 21DAT” value [2, 6] of the same molecule?
A: 0%

Q: And the “Average damage % 3DAT” value [2, 7]?
A: 6%

Q: And the “Average damage % 7DAT” value [2, 7]?
A: 0%

Q: What about the “Average damage % 14DAT” value [2, 7] of the same molecule?
A: 0%

Q: And the “Average damage % 21DAT” value [2, 7]?
A: 0%

Q: And the “Average damage % 3DAT” value [2, 8]?
A: 5%

Q: What about the “Average damage % 7DAT” value [2, 8] of the same molecule?
A: 0%

Q: And the “Average damage % 14DAT” value [2, 8]?
A: 0%

Q: What about the “Average damage % 21DAT” value [2, 8] of the same molecule?
A: 0%

Q: And the “Average damage % 3DAT” value [2, 9]?
A: 0%

Q: What about the “Average damage % 7DAT” value [2, 9] of the same molecule?
A: 0%

Q: What about the “Average damage % 14DAT” value [2, 9] of the same molecule?
A: 0%

Q: And the “Average damage % 21DAT” value [2, 9]?
A: 0%

Q: What about the “Average damage % 3DAT” value [2, 10] of the same molecule?
A: 0%

Q: And the “Average damage % 7DAT” value [2, 10]?
A: 0%

Q: What about the “Average damage % 14DAT” value [2, 10] of the same molecule?
A: 0%

Q: And the “Average damage % 21DAT” value [2, 10]?
A: 0%

Q: What about the “Average damage % 3DAT” value [2, 11] of the same molecule?
A: 8%

Q: And the “Average damage % 7DAT” value [2, 11]?
A: 0%

Q: What about the “Average damage % 14DAT” value [2, 11] of the same molecule?
A: 0%

Q: What about the “Average damage % 21DAT” value [2, 11] of the same molecule?
A: 0%

Q: And the “Average damage % 3DAT” value [2, 12]?
A: 7%

Q: And the “Average damage % 7DAT” value [2, 12]?
A: 0%

Q: And the “Average damage % 14DAT” value [2, 12]?
A: 0%

Q: And the “Average damage % 21DAT” value [2, 12]?
A: 0%

Q: And the “Average damage % 3DAT” value [2, 13]?
A: 0%

Q: And the “Average damage % 7DAT” value [2, 13]?
A: 0%

Q: And the “Average damage % 14DAT” value [2, 13]?
A: 0%

Q: And the “Average damage % 21DAT” value [2, 13]?
A: 0%

Q: And the “Average damage % 3DAT” value [2, 14]?
A: 0%

Q: And the “Average damage % 7DAT” value [2, 14]?
A: 0%

Q: And the “Average damage % 14DAT” value [2, 14]?
A: 0%

Q: What about the “Average damage % 21DAT” value [2, 14] of the same molecule?
A: 0%

Q: What about the “herbicide tolerance conferred by the thifensulfuron hydrolase (ALT-1, ALT-2 and ALT-3)” value ([2]; transgenic soybean plants) of the same molecule?
A: conferred a high level of Sulfometuron-methyl herbicide tolerance
